Literature values in patent US12642292B2, “Multi-compartment oral pouched product” (NICOVENTURES TRADING LIMITED, priority 2021, dated 2026).

Assays:
[1] = for solubility in water / aqueous environment: for CBD aqueous environment (e.g., saliva)
[2] = when isolated; converts via isomerization into trans-bixin

Compound | solubility in water / aqueous environment [1] | chemical stability [2] | solubility in fats and alcohols ([1]; fats and alcohols)
CC(/C=C/C=C(C)/C=C/C(=O)O)=C\C=C\C=C(C)\C=C\C=C(C)\C=C\C(=O)O (stereo in doubt) [norbixin, (2E,4E,6E,8E,10E,12E,14E,16E,18E)-4,8,13,17-tetramethylicosa-2,4,6,8,10,12,14,16,18-nonaenedioic acid] | water soluble |  | 
C=C(C)[C@@H]1CCC(C)=C[C@H]1c1c(O)cc(CCCCC)cc1O [CBD, cannabidiol, reference compound] | insoluble in an aqueous environment |  | 
COC(=O)/C=C/C(C)=C\C=C\C(C)=C\C=C\C=C(C)\C=C\C=C(C)\C=C\C(=O)O [bixin] | insoluble in water | chemically unstable when isolated | soluble in fats and alcohols
